Data published in article PMC9583322, “Vicinal Diaryl-Substituted Isoxazole and Pyrazole Derivatives with In Vitro Growth Inhibitory and In Vivo Antitumor Activity” (ACS Omega, 2022).

What was measured:
[1] = test system: Huh7, Mahlavu and MCF7; test: SRB cytotoxicity, summary for all three cell lines; format: cell-based; conditions: Homo sapiens; one value or range for Huh7, Mahlavu and MCF7 together; read-out: IC50 against all three cell lines
Description: Mahlavu, FOCUS, SNU475 (1000 cell/well in 150 μL/well); Huh7, MCF7 (2500 cell/well in 150 μL/well); HepG2, Hep3B, SKBR3 (3000 cell/well in 150 μL/well); PLC-PRF-5, Hep40 (5000 cell/well in 150 μL/well); MDA-MB-231, MDA-MB-468, MCF10A (6000 cell/well in 150 μL/well); and ZR-75 (7500 cell/well in 150 μL/well) were cultured in 96-well plates and were inoculated in an incubator for 24 hours. The compounds were dissolved in dimethyl sulfoxide (DMSO) (Sigma, St Louis, MO) as a 20 mM stock solution. The treatment of cells with the compounds was done in a concentration range starting from 40 to 2.5 μM. The compounds which were below 2.5 μM were tested in a concentration range from 2.5 to 0.15 μM. End of the 72h compound treatment, the cells were fixed using 10% (v/v) trichloroacetic acid (MERCK) for an hour and washed with ddH2O, and left for air-drying. The fixed plates were stained with 50 μL of sulforhodamine B (SRB) solution (Sigma) at RT for 10 min. To remove unbound SRB dye, acetic acid was used to wash cells three times and left for drying. The protein-bound SRB was solubilized with 10 mM Tris-base (Sigma) and their absorbance was measured with a 96-well plate reader at 515 nm wavelength (ELx800, Biotek). The IC50 values of compounds were calculated in comparison with control group DMSO. Data with R^2 values larger than 0.9 are considered significant.

[2] = Metabolic stability in human microsomes; format: in vitro ADME; conditions: after 45 min incubation
Description: (§1) All chemicals were purchased from different suppliers such as Sigma-Aldrich Chemicals (Sigma-Aldrich Corp., St. Louis, MO), Merck Chemicals (Merck KGaA, Darmstadt, Germany), and ABCR (abcr GmbH, Karlsruhe, Germany). THF was dried from benzophenone-sodium. ^1H and ^13C NMR spectra were recorded in CDCl3 or DMSO-d6 on a Varian Mercury 400 MHz spectrometer using tetramethylsilane as the internal standard. Coupling constants were reported as Hertz and all chemical shifts were recorded as δ (ppm). High-resolution mass spectra data (HRMS) were collected using Waters LCT Premier XE Mass Spectrometer operating in ESI(+) or ESI(−) method, also coupled to an AQUITY Ultra Performance Liquid Chromatography system (Waters Corporation) using a UV detector monitoring at 254 nm. Purity for all final compounds was >95%, according to the UPLC-MS method using a water/MeCN solvent gradient containing 0.1% formic acid (1%/90%); flow rate: 0.3 mL/min, column: Aquity BEH C18 column (2.1 × 100 mm^2, 1.7 mm). All microwave irradiation reactions were carried out in a Biotage Initiator + microwave apparatus with Biotage sealed microwave vials. […] Melting points of the compounds were determined using the SMP50 automated melting point apparatus (Stuart, Staffordshire, ST15 OSA, U.K.). […]

[3] = logD7.4; format: physicochemical; conditions: pH 7.4
Description: as §1

[4] = Solubility at the physiological pH; format: physicochemical
Description: as §1

[5] = test system: plasma protein; test: Plasma protein binding; format: in vitro ADME
Description: as §1

[6] = biological target: CYP2C9 (Homo sapiens, UniProt P11712); test: CYP inhibition; format: in vitro ADME; conditions: read-out: Inhibition of human CYP 2C9
Chain of CYP2C9 (P11712 whole entry): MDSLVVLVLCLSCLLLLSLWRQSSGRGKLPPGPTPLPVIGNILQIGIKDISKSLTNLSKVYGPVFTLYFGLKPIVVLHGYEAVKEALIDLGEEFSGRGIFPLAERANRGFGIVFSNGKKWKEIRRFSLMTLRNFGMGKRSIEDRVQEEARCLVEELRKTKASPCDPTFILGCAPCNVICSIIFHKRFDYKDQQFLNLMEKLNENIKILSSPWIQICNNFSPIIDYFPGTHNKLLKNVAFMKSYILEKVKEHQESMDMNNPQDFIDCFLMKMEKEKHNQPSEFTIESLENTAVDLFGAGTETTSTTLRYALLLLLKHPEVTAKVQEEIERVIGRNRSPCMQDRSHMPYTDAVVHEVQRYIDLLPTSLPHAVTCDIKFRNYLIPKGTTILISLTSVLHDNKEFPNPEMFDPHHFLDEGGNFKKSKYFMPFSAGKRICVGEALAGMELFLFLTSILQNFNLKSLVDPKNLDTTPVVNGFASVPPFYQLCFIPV
Description: (§2) All chemicals were purchased from different suppliers such as Sigma-Aldrich Chemicals (Sigma-Aldrich Corp., St. Louis, MO), Merck Chemicals (Merck KGaA, Darmstadt, Germany), and ABCR (abcr GmbH, Karlsruhe, Germany). THF was dried from benzophenone-sodium. ^1H and ^13C NMR spectra were recorded in CDCl3 or DMSO-d6 on a Varian Mercury 400 MHz spectrometer using tetramethylsilane as the internal standard. Coupling constants were reported as Hertz and all chemical shifts were recorded as δ (ppm). High-resolution mass spectra data (HRMS) were collected using Waters LCT Premier XE Mass Spectrometer operating in ESI(+) or ESI(−) method, also coupled to an AQUITY Ultra Performance Liquid Chromatography system (Waters Corporation) using a UV detector monitoring at 254 nm. Purity for all final compounds was >95%, according to the UPLC-MS method using a water/MeCN solvent gradient containing 0.1% formic acid (1%/90%); flow rate: 0.3 mL/min, column: Aquity BEH C18 column (2.1 × 100 mm^2, 1.7 mm). All microwave irradiation reactions were carried out in a Biotage Initiator + microwave apparatus with Biotage sealed microwave vials. Flash chromatography was performed on a Combiflash Rf Automatic Flash Chromatography System with RediSep silica gel columns (12, 24, and 40 g) (Teledyne-Isco, Lincoln, NE) or Reveleris PREP Purification System (Buchi, New Castle, DE). Preparative chromatography was performed on Buchi US15C18HQ-250/212-C18 silica gel columns with the following devices; Reveleris PREP Purification System or PuriFlash 4250 System (Interchim, Montluçon, France). Melting points of the compounds were determined using the SMP50 automated melting point apparatus (Stuart, Staffordshire, ST15 OSA, U.K.). The in vitro ADME and in vivo mouse PK studies were conducted at Syngene International Ltd., Bangalore, India. General synthetic procedures (Methods 1–9) and experimental data for all intermediate compounds can be found in the Supporting Information.

[7] = biological target: CYP2D6 (Homo sapiens, UniProt P10635); test: CYP inhibition; format: in vitro ADME; conditions: read-out: Inhibition of human CYP 2D6
Chain of CYP2D6 (P10635 whole entry): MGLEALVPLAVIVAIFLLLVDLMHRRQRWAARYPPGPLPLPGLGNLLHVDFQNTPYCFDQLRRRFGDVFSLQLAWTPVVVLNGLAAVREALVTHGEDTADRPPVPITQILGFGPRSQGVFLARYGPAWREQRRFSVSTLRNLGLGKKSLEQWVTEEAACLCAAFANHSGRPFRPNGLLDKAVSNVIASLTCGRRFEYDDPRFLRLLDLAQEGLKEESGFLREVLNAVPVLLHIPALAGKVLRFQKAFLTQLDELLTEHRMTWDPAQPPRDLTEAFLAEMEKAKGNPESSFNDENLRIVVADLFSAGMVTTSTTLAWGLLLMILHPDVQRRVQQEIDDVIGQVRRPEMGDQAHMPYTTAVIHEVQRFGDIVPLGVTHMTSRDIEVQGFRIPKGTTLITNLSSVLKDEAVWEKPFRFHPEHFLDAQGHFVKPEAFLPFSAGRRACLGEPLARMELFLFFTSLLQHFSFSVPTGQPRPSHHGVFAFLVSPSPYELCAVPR
Description: as §2

[8] = biological target: CYP3A4 (Homo sapiens, UniProt P08684); test: CYP inhibition; format: in vitro ADME; conditions: read-out: Inhibition of human CYP 3A4
Chain of CYP3A4 (P08684 whole entry): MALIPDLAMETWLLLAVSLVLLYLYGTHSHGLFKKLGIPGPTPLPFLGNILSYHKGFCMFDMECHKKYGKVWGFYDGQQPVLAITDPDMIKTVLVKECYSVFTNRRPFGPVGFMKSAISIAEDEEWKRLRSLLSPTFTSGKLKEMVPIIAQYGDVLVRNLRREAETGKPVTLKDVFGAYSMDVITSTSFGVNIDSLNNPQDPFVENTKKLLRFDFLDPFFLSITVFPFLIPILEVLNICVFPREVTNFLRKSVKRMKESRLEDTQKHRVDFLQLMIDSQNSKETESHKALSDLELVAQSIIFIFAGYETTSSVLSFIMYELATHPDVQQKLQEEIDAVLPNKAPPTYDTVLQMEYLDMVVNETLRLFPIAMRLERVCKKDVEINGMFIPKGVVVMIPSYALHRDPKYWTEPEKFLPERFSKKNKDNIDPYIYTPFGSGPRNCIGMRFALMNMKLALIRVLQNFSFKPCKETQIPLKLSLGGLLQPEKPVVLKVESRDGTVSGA
Description: as §2

[9] = Mouse PK, IV and PO; format: in vivo
Description: 1000 Mean Mice PK plasma concentrations after
Figure S2. Plasma concentrations vs. time profile of 85 after single dose IV (1 mg/kg) and PO
(10 mg/kg) administrations in male CD-1 mice. The PK study was done at Syngene
International, Ltd., India. […]

[10] = male, CD-1, plasma, 1 mg/kg, Mouse IV PK, 1 mpk
[11] = male, CD-1, plasma, 10 mg/kg, Mouse PO PK, 10 mpk

Cc1ccccc1COc1ccc(-c2ccnn2-c2ccc(Cl)cc2)cc1 [compound 85, 1-(4-Chlorophenyl)-5-(4-((2-methylbenzyl)oxy)phenyl)-1H-pyrazole]
IC50 [1]: 0.7 to 14.4 µM
Metabolic stability, remaining [2]: 55%
logD [3]: 6.64
Solubility [4]: sparingly soluble
plasma protein-bound [5]: 99.9%
inhibition at 10 µM [6]: 7.3%
inhibition at 10 µM [7]: 22.2%
inhibition at 10 µM [8]: 0%
Co ([9]; Mouse IV PK, 1 mpk): 393 ng/mL
AUC [9, 10]: 436 ng·h/mL
Vd [9, 10]: 13.2 L/kg
half-life [9, 10]: 231 min
clearance ([9]; male, CD-1, plasma, 1 mg/kg, Mouse IV PK, 1 mpk, read-out: Clp (converted)): 38.8 mL/min/kg
AUC [9, 11]: 192 ng·h/mL
Cmax [9, 11]: 19.3 ng/mL
bioavailability [9, 11]: 5%
half-life [9, 11]: 398 min
